{
  "source": "patent US20220288207A1",
  "about": "“PHOTO INDUCED CONTROL OF PROTEIN DESTRUCTION” (Beth Israel Deaconess Medical Center, Inc., priority 2019, published 2022)",
  "key": {"[1]": {"experiment": "Uncaging (photolysis) by UVA irradiation in vitro, UV-VIS absorption / UPLC-MS analysis", "format": "physicochemical", "conditions": "1 mM, UVA 365 nm, time course", "method": "HPLC spectra were acquired using an Agilent 1200 Series system with DAD detector for all the intermediates and Opto-PROTACs below. Chromatography was performed on a 2.1×150 mm Zorbax 300SB-C18 5 μm column with water containing 0.1% formic acid as solvent A and acetonitrile containing 0.1% formic acid as solvent B at a flow rate of 0.4 ml/min. The gradient program was as follows: 1% B (0-1 min), 1-99% B (1-4 min), and 99% B (4-8 min). High-resolution mass spectra (FIRMS) data were acquired in positive ion mode using an Agilent G1969A API-TOF with an electrospray ionization (ESI) source. Nuclear Magnetic Resonance (NMR) spectra were acquired on a Bruker DRX-600 spectrometer with 600 MHz for proton (^1H NMR) and 151 MHz for carbon (^13C NMR); chemical shifts are reported in (δ). Preparative HPLC was performed on Agilent Prep 1200 series with UV detector set to 254 nm. Samples were injected onto a Phenomenex Luna 250×30 mm, 5 μm, C18 column at room temperature. The flow rate was 40 ml/min. A linear gradient was used with 10% of acetonitrile (A) in H2O (with 0.1% TFA) (B) to 100% of acetonitrile (A). HPLC was used to establish the purity of target compounds. All final compounds had >95% purity using the HPLC methods described above.\n(§1) UV-Vis spectrometry was performed on a NanoDrop-2000 UV-Visible Spectrophotometer. Pomalidomide, opto-pomalidomide, dBET1, opto-dBET1, dALK and opto-dALK were dissolved in DMSO and diluted to indicated concentration, followed by UVA irradiation for indicated duration of time. Then the samples were subjected to UV-Vis spectrometry analysis. Pomalidomide and opto-pomalidomide mixture solutions were made with the indicated ratio. Absorption values at 364 nm were measured to draw standard curve. dBET1 and opto-dBET1 mixture solution were made with the indicated ratios. Absorption values at 340 nm were measured to draw standard curve. dALK and opto-dALK mixture solution were made with indicated ratio. Absorption values at 370 nm were measured to draw standard curve."}, "[2]": {"experiment": "UV-VIS absorption spectrum", "format": "physicochemical", "conditions": "in DMSO", "method": "as §1"}, "[3]": {"target": "T1, CRBN (Homo sapiens, UniProt Q96SW2)", "T1 construct": "made in house; host or cells: HEK293T", "experiment": "Competitive binding in vitro pull-down assay (biotin-pomalidomide pulls down Flag-CRBN)", "method": "Flag-CRBN was expressed in HEK293T cells lysed in PROTAC buffer B (50 mM Tris pH 7.5, 150 mM NaCl, 0.5% NP-40) supplemented with protease inhibitors (cOmplete Mini, Roche) and phosphatase inhibitors (phosphatase inhibitor cocktail set I and II, Calbiochem). 3mg cell lysis was incubated with 10 μl 10mM biotin-pomalidomide and […] streptavidin beads for 1 h at 4° C. in the absence or presence of pomalidomide or opto-pomalidomide. Then, the beads were washed four times with NETN buffer (20 mM Tris, pH 8.0, 100 mM NaCl, 1 mM EDTA and 0.5% NP-40) before being resolved by SDS-PAGE and immunoblotted with indicated antibodies."}, "[4]": {"target": "T2, CRBN and IKZF1 (Homo sapiens, UniProt Q13422+Q96SW2)", "T2 construct": "expressed in transfected cells; host or cells: HEK293T", "experiment": "CRBN-IKZF1 interaction, Flag-IP and immunoblot in HEK293T cells", "format": "cell-based", "conditions": "10 μM MG132 12 hours", "method": "(§2) MM.1S, MT2, C4-2, NCI-H2228 and NCI-H3122 cells were cultured in RPMI1640 containing 10% fetal bovine serum (FBS), 100 Units of penicillin and 100 μg/ml streptomycin. […] For UVA irradiation, cells were pretreated with opto-PROTACs for 2-4 hours, and then subjected to UVA irradiation for indicated durations.\n(§3) Cells were lysed in EBC lysis buffer (50 mM Tris pH 7.5, 120 mM NaCl, 0.5% NP-40), supplemented with protease inhibitors (cOmplete Mini, Roche) and phosphatase inhibitors (phosphatase inhibitor cocktail set I and II, Calbiochem). The protein concentrations of the lysates were measured using the Bio-Rad protein assay reagent on a Beckman Coulter DU-800 spectrophotometer. The lysates were then resolved by sodium dodecylsulfate-polyacrylamide gel ectrophoresis (SDS-PAGE) and immunoblotted with indicated antibodies. For immunoprecipitation, 1 mg lysates were incubated with the appropriate sepharose beads for 4 h at 4° C. Immuno-complexes were washed four times with NETN lysis buffer (20 mM Tris, pH 8.0, 100 mM NaCl, 1 mM EDTA and 0.5% NP-40) before being resolved by SDS-PAGE and immunoblotted with indicated antibodies."}, "[5]": {"test_system": "IKZF1/3", "experiment": "IKZF1/3 degradation, immunoblot of MM1S cells", "format": "cell-based", "method": "as §2, §3"}, "[6]": {"test_system": "MM1S cells", "experiment": "CCK-8 cell viability assay, MM1S cells", "format": "cell-based", "conditions": "MM1S cells, UVA irradiation (365 nm) 15 min", "method": "(§4) Human embryonic kidney 293T (HEK293T) cells and HEK293FT were maintained in Dulbecco's Modified Eagle's Medium (DMEM) containing 10% fetal bovine serum (FBS), 100 Units of penicillin and […] streptomycin. MM.1S, MT2, C4-2, NCI-H2228 and NCI-H3122 cells were cultured in RPMI1640 containing 10% fetal bovine serum (FBS), 100 Units of penicillin and 100 μg/ml streptomycin. 293FT^CRBN+/+, 293FT^CRBN+/+ , MM.1S^CRBN+/+ and MM.1S^CRBN−/− cells were provided Dr. William G. Kaelin (Dana-Farber Cancer Institute). For UVA irradiation, cells were pretreated with opto-PROTACs for 2-4 hours, and then subjected to UVA irradiation for indicated durations.\n(§5) Cell in 96-well plates were incubated with 10 ul/well of CCK-8 solution and incubated for 2 hours, followed by the measurement of optical density using a microplate reader with a 450 nm filter (O.D. 450)."}, "[7]": {"test_system": "MT2 cells", "experiment": "CCK-8 cell viability assay, MT2 cells", "format": "cell-based", "conditions": "UVA irradiation (365 nm) 15 min", "method": "as §4, §5"}, "[8]": {"target": "T3, IKZF1 (Homo sapiens, UniProt Q13422+Q96SW2)", "experiment": "IKZF1 degradation, immunoblot of MT2 cells", "format": "cell-based", "set-up": "endogenous in cells; host or cells: MT2", "conditions": "with UVA irradiation", "method": "as §4\nas §3, with “Immuno-complexes were washed four times with NETN lysis buffer (20 mM Tris, pH 8.0, 100 mM NaCl, 1 mM EDTA and 0.5% NP-40) before being resolved by SDS-PAGE and immunoblotted with indicated antibodies.” left out"}, "[9]": {"target": "T3, IKZF1", "experiment": "In vivo ubiquitination assay of IKZF1 by CRBN in HEK293T cells (Ni-NTA pull down)", "format": "cell-based", "set-up": "expressed in transfected cells; host or cells: HEK293T", "conditions": "UVA irradiation (365 nm) 15 min", "method": "Briefly, HEK293T cells were transfected with Flag-CRBN, His-ubiquitin and HA-IKZF1 or GFP-BRD2 or GFP-BRD3. 24 hours after transfection, pomalidomide, opto-pomalidomide, dBET1 or opto-dBET1 were added to the cell culture together with 10 μM MG132 for 12 hours and cells were harvested in denatured buffer A (6 M guanidine-HCl, pH 8.0, 0.1 M Na2HPO4/NaH2PO4, 10 mM imidazole). After sonication, the ubiquitinated proteins were purified by incubation with Ni-NTA matrices for 3 hours at room temperature. The pull-down products were washed sequentially twice in buffer A, twice in buffer ANTI mixture (buffer A: buffer TI=1:3) and once in buffer TI (25 mM Tris-HCl, pH 6.8, 20 mM imidazole). The poly-ubiquitinated proteins were separated by SDS-PAGE for immunoblot analysis."}},
  "note": "“Also recorded” adds a separate entry of the source.",
  "data": [
    {"smiles": "COc1cc(COC(=O)N2C(=O)CCC(N3C(=O)c4cccc(N)c4C3=O)C2=O)c([N+](=O)[O-])cc1OC", "note": "(stereo not drawn) [opto-pomalidomide, 4,5-dimethoxy-2-nitrobenzyl 3-(4-amino-1,3-dioxoisoindolin-2-yl)-2,6-dioxopiperidine-1-carboxylate]", "values": [
      {"measurement": "uncaging (photolysis) by UVA irradiation in vitro", "setting": "[1]", "value": "could be induced to undergo photolysis by UVA irradiation in vitro"},
      {"measurement": "maximum in absorption of UV-VIS absorption spectrum", "setting": "[2]", "value": 364, "unit": "nm"},
      {"measurement": "binding with CRBN", "setting": "[3]; after UVA irradiation (365 nm, 30 min)", "value": "regained ability to bind with CRBN"},
      {"measurement": "binding with CRBN", "setting": "[3]; without UVA irradiation", "value": "ineffective to bind with CRBN in vitro"},
      {"measurement": "interaction between CRBN and IKZF1", "setting": "[4]; UVA irradiation (365 nm) 15 min", "value": "regained the ability to promote the binding between CRBN and IKZF 1"},
      {"measurement": "interaction between CRBN and IKZF1", "setting": "[4]; without UVA irradiation", "value": "ineffective in guiding the protein-protein interaction between CRBN and IKZF1"},
      {"measurement": "degradation of IKZF1/3", "setting": "[5]; MM1S cells, UVA irradiation (365 nm) for different durations", "value": "occurred in a drug-dose and UVA-dose dependent manner"},
      {"measurement": "degradation of IKZF1/3", "setting": "[5]; MM1S-CRBN+/+ vs. MM1S-CRBN−/− cells, 12 hours, without UVA irradiation, opto-drug up to 10-fold excess", "value": "lost this function without UVA irradiation"},
      {"measurement": "cell proliferation (CCK-8)", "setting": "[6]", "value": "largely dependent on UVA irradiation; also recorded: inhibits MM1S cell proliferation in a dose-dependent manner"},
      {"measurement": "cell proliferation (CCK-8)", "setting": "[7]", "value": "inhibits MT2 cell proliferation in a dose-dependent manner"},
      {"measurement": "degradation of IKZF1", "setting": "[8]", "value": "mediate IKZF1 degradation in MT2 cells"},
      {"measurement": "ubiquitination of IKZF1 by CRBN", "setting": "[9]", "value": "leading to CRBN-mediated IKZF1 ubiquitination"}
    ]}
  ]
}
